ChEMBL document CHEMBL1126001, “Physical parameters for brian uptake: optimizing log P, log D and pKa of T H A” (Bioorg Med Chem Lett, 1991)

Tests used:
Acetylcholinesterase = Acetylcholinesterase (Homo sapiens, UniProt P22303)
Description: In vitro inhibition of acetylcholinesterase isolated from human erythrocytes.

physchem [1] = assay: physchem
Description: Compound was evaluated for its acid dissociation constant

physchem [2] = settings: octanol/water
Description: Partition coefficient (logP)

physchem [3] = settings: buffer, pH 7.5
Description: Lipophilic dissociation constant is determined as a measure of partitioning of neutral molecules at pH 7.5

Sequence of Acetylcholinesterase (P22303 whole entry): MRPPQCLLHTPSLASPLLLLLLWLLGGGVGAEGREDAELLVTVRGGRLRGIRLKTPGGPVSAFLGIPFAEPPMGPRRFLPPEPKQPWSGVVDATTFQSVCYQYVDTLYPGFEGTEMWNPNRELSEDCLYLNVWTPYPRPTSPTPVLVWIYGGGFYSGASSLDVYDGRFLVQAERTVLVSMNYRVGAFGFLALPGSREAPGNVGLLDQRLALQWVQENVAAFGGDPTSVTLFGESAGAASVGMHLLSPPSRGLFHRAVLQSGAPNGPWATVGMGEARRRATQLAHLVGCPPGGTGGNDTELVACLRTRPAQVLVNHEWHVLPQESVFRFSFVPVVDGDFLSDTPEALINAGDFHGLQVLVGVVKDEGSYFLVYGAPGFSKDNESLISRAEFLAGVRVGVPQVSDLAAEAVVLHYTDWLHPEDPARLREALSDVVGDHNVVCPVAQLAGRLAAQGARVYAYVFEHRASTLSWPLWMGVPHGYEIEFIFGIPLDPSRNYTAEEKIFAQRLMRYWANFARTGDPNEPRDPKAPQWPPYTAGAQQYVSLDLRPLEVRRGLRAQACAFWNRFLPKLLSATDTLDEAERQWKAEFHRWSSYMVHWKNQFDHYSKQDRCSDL

SMILES	IC50 (Acetylcholinesterase)	pKa (physchem [1])	logP (physchem [2])	logD (physchem [3])
Nc1c2c(nc3ccc(Cl)cc13)OCCC2	9.81 µM	–	–	–
Nc1c2c(nc3cnccc13)CCCC2	2.6 µM	7.3	–	–
COc1cccc2nc3c(c(N)c12)CCCC3	0.615 µM	10.4	–	–
Nc1c2c(nc3c1CCCO3)CCCC2	0.455 µM	7.8	–	–
Nc1c2c(nc3ncccc13)CCCC2	0.429 µM	8.8	–	–
COc1cccc2nc3c(c(N)c12)CCCO3	0.606 µM	8.11	–	–
Nc1c2c(nc3cccc(Cl)c13)OCCC2	0.313 µM	6.6	–	–
Nc1c2c(nc3ccccc13)OCCC2	0.266 µM	7.8	1.86	1.37
Nc1c2c(nc3cccc(F)c13)OCCC2	0.335 µM	6.9	–	–
Cc1cccc2nc3c(c(N)c12)CCCC3	0.099 µM	9.98	–	–
Nc1c2c(nc3c1CCCC3)CCCC2 [OCTAAMINOACRIDINE]	0.36 µM	11	–	–
Nc1c2c(nc3cccc(F)c13)CCCC2	0.078 µM	9.1	–	–
Nc1c2c(nc3ccc(Cl)cc13)CCCC2	3.68 µM	–	–	–
Nc1c2c(nc3c1CCC3)CCCC2 [IPIDACRINE]	–	10.2	–	–
Nc1c2c(nc3cnccc13)OCCC2	0.042 µM	5.6	–	–
Nc1c2c(nc3ncccc13)OCCC2	6.26 µM	6.4	–	–
Nc1c2c(nc3c1CCCO3)CCC2	1.12 µM	7.8	–	–
Cc1cccc2nc3c(c(N)c12)CCCO3	0.15 µM	8.06	2.28	1.63
Nc1c2c(nc3cccc(Cl)c13)CCCC2	0.039 µM	9.3	–	–
